Source: US4027039A (priority 1975, dated 1977)
“And” between values parts separate entries of the source, which are not always exact repeats. Equal entries are not always repeated. Where two headings read alike, the source gives them in different places.

Legend:
viral infections = assay: Antiviral screening in animals, general statements; conditions: mouse, in vivo
Vaccinia IHD virus = type: in vivo, mouse
[1] = test system: Influenza, Ann Arbor virus; assay: Influenza Ann Arbor in mice, oral; schedule by table; late read day 5 (Tables 15, 25, 29, 30), 6 (18, 20, 22, 23, 26, 27, 28, 54), 7 (14, 19, 21, 24, 53, 56), 8 (16, 17, 51), 9 (11, 55); type: in vivo, mouse; conditions: oral
Herpes virus [2] = test system: Herpes virus
Herpes virus [3] = assay: Herpes virus in chicken eggs, single dose 24 hours pre-infection; type: in vivo, chick embryo
[4] = test system: Influenza B Massachusetts virus; assay: Influenza B Mass. in mice, oral; late read day 5 (Table 39), 7 (Table 40), 11 (Tables 61, 65); control fraction 16/20 (Table 61), else 100%; type: in vivo, mouse
Description: A portion of a commercially available sample of amantadine was recrystallized from isopropanol. The activity of the material against Influenza B Mass. was tested for the sample as obtained, the recrystallized portion, and the mother liquor obtained from recrystallizing the portion.

Structure (SMILES): O=C(C=NO)c1ccccc1 [phenylglyoxaloxime]
- activity in words (viral infections): active

Structure (SMILES): NN [hydrazine]
- Statistical Significance of Tail Lesions (Vaccinia IHD virus; 10 ng, day 6): < .01
- Statistical Significance of Tail Lesions (Vaccinia IHD virus; 10 ng, day 7): < .05
- Statistical Significance of Tail Lesions (Vaccinia IHD virus; 10 ng, day 11): < .01
- Statistical Significance of Tail Lesions (Vaccinia IHD virus; 10 ng, day 12): < .01
- Statistical Significance of Tail Lesions (Vaccinia IHD virus; 10 ng, day 14): < .01
- Statistical Significance of Tail Lesions (Vaccinia IHD virus; 10 ng, day 17): < .01
- Statistical Significance of Tail Lesions (Vaccinia IHD virus; 10 ng, day 21): < .01
- Statistical Significance of Tail Lesions (Vaccinia IHD virus; 1 μg, day 10): < .01
- Statistical Significance of Tail Lesions (Vaccinia IHD virus; 1 μg, day 11): < .01
- Statistical Significance of Tail Lesions (Vaccinia IHD virus; 1 μg, day 12): < .01
- Statistical Significance of Tail Lesions (Vaccinia IHD virus; 1 μg, day 14): < .01
- Statistical Significance of Tail Lesions (Vaccinia IHD virus; 1 μg, day 17): < .01
- Statistical Significance of Tail Lesions (Vaccinia IHD virus; 1 μg, day 21): < .01
- Statistical Significance of Tail Lesions (Vaccinia IHD virus; 10 [μg], day 10): < .05
- Statistical Significance of Tail Lesions (Vaccinia IHD virus; 10 [μg], day 11): < .01
- Statistical Significance of Tail Lesions (Vaccinia IHD virus; 10 [μg], day 12): < .01
- Statistical Significance of Tail Lesions (Vaccinia IHD virus; 10 [μg], day 14): < .01
- Statistical Significance of Tail Lesions (Vaccinia IHD virus; 10 [μg], day 17): < .01
- Statistical Significance of Tail Lesions (Vaccinia IHD virus; 10 [μg], day 21): < .01
- Statistical Significance of Tail Lesions (Vaccinia IHD virus; 100 [ng], day 5): < .05
- Statistical Significance of Tail Lesions (Vaccinia IHD virus; 100 [ng], day 6): < .01
- Statistical Significance of Tail Lesions (Vaccinia IHD virus; 100 [ng], day 7): < .01
- Statistical Significance of Tail Lesions (Vaccinia IHD virus; 100 [ng], day 8): < .05
- Statistical Significance of Tail Lesions (Vaccinia IHD virus; 100 [ng], day 10): < .01
- Statistical Significance of Tail Lesions (Vaccinia IHD virus; 100 [ng], day 11): < .01
- Statistical Significance of Tail Lesions (Vaccinia IHD virus; 100 [ng], day 12): < .01
- Statistical Significance of Tail Lesions (Vaccinia IHD virus; 100 [ng], day 14): < .01
- Statistical Significance of Tail Lesions (Vaccinia IHD virus; 100 [ng], day 17): < .01
- Statistical Significance of Tail Lesions (Vaccinia IHD virus; 100 [ng], day 21): < .01
- activity in words [1]: much less significant activity
- No. animals surviving after 6-9 days (Herpes virus [2]; total dose .0005 μg): 6 and 5
- No. animals surviving after 6-9 days (Herpes virus [2]; total dose .005 μg): 6
- No. animals surviving after 6-9 days (Herpes virus [2]; total dose .05 μg): 3 and 5
- No. animals surviving when 100% (or given fraction) of controls are dead (Herpes virus [2]; total dose .05 μg): 1
- No. animals surviving when 100% (or given fraction) of controls are dead (Herpes virus [2]; total dose .5 μg): 1
- Deaths on day 1 (Herpes virus [3]; 2 μg): 3
- Deaths on day 2 (Herpes virus [3]; 2 μg): 4
- Deaths on day 3 (Herpes virus [3]; 2 μg): 1
- Deaths on day 4 (Herpes virus [3]; 2 μg): 1
- No. dying 5-22 day (Herpes virus [3]; 2 μg): 0
- No. hatched (Herpes virus [3]; 2 μg): 1
- No. living longer than controls (Herpes virus [3]; 2 μg): 1
- Total deaths, 4th day (Herpes virus [3]; 2 μg): 9
- Deaths on day 1 (Herpes virus [3]; 20 μg): 3
- Deaths on day 3 (Herpes virus [3]; 20 μg): 4
- No. dying 5-22 day (Herpes virus [3]; 20 μg): 0
- No. hatched (Herpes virus [3]; 20 μg): 1
- No. living longer than controls (Herpes virus [3]; 20 μg): 1
- Total deaths, 4th day (Herpes virus [3]; 20 μg): 11
- Deaths on day 3 (Herpes virus [3]; .00005 μg): 5
- No. dying 5-22 day (Herpes virus [3]; .00005 μg): 0
- No. living longer than controls (Herpes virus [3]; .00005 μg): 1
- Total deaths, 4th day (Herpes virus [3]; .00005 μg): 9
- Deaths on day 2 (Herpes virus [3]; .0005 μg): 6
- Deaths on day 3 (Herpes virus [3]; .0005 μg): 4
- No. dying 5-22 day (Herpes virus [3]; .0005 μg): 0
- No. living longer than controls (Herpes virus [3]; .0005 μg): 0
- Total deaths, 4th day (Herpes virus [3]; .0005 μg): 12
- Deaths on day 2 (Herpes virus [3]; .005 μg): 7
- Deaths on day 3 (Herpes virus [3]; .005 μg): 4
- No. dying 5-22 day (Herpes virus [3]; .005 μg): 0
- No. living longer than controls (Herpes virus [3]; .005 μg): 0
- Total deaths, 4th day (Herpes virus [3]; .005 μg): 11
- Deaths on day 2 (Herpes virus [3]; .05 μg): 5
- Deaths on day 3 (Herpes virus [3]; .05 μg): 3
- No. dying 5-22 day (Herpes virus [3]; .05 μg): 0
- No. living longer than controls (Herpes virus [3]; .05 μg): 0
- Total deaths, 4th day (Herpes virus [3]; .05 μg): 10
- Deaths on day 3 (Herpes virus [3]; .5 μg): 5
- Deaths on day 4 (Herpes virus [3]; .5 μg): 1
- No. dying 5-22 day (Herpes virus [3]; .5 μg): 0
- No. living longer than controls (Herpes virus [3]; .5 μg): 0
- Total deaths, 4th day (Herpes virus [3]; .5 μg): 10
- Total no. living longer than controls (Herpes virus [3]; all doses): 3

Structure (SMILES): N=C(N)NN [aminoguanidine, bicarbonate]
- Survivors ([4]; total dose 40 pg): 0
- Survivors ([4]; total dose 400 pg): 2
- Survivors ([4]; total dose 4 ng): 0
- Survivors ([4]; total dose 40 ng): 1
- Survivors ([4]; total dose 400 ng): 1
- Survivors ([4]; total dose 4 μg): 1
- activity in words (viral infections): very pronounced protective effects
